Format in all cases: cell-based
In test [1] the test system is C. albicans ATCC # 10231. As to the kind of experiment: Synergy test: microtiter plate high resolution MIC assay, PDB medium, 25° C. To be noted: for MIC of the microbicide acting alone (Ca or Cb; QA/QB): C. albicans, single component. An excerpt: (§1) One measure of synergism is the industrially accepted method described by Kull, F. C.; Eisman, P. C.; Sylwestrowicz, H. D. and Mayer, R. L., in Applied Microbiology 9:538-541 (1961), using the ratio determined by the formula: Qa/QA+Qb/QB=Synergy Index(“SI”) wherein: • QA=concentration of compound A (first component) in ppm, acting alone, which produced an end point (MIC of Compound A). • Qa=concentration of compound A in ppm, in the mixture, which produced an end point. • QB=concentration of compound B (second component) in ppm, acting alone, which produced an end point (MIC of Compound B). • Qb=concentration of compound B in ppm, in the mixture, which produced an end point.
(§2) When the sum of Qa/QA and Qb/QB is greater than one, antagonism is indicated. […] The lower the SI, the greater the synergy shown by that particular mixture. The minimum inhibitory concentration (MIC) of a microbicide is the lowest concentration tested under a specific set of conditions that prevents the growth of added microorganisms.
(§3) Synergy tests were conducted using standard microtiter plate assays with media designed for optimal growth of the test microorganism. Minimal salt medium supplemented with 0.2% glucose and 0.1% yeast extract (M9GY medium) was used for testing bacteria; Potato Dextrose Broth (PDB medium) was used for testing yeast and mold. In this method, a wide range of combinations of microbicides was tested by conducting high resolution MIC assays in the presence of various concentrations of MBIT. High resolution MICs were determined by adding varying amounts of microbicide to one column of a microtitre plate and doing subsequent […] dilutions using an automated liquid handling system to obtain a series of endpoints ranging from 2 ppm to 10,000 ppm active ingredient.
(§4) The synergy of the combinations of the present invention was determined against several microorganisms, as described in the Tables below. The bacteria were used at a concentration of about 5×10^6 bacteria per mL and the yeast and mold at 5×10^5 fungi per mL. These microorganisms are representative of natural contaminants in many consumer and industrial applications. […] (yeast and mold) or 30° C. (bacteria).
(§5) In each test, Second Component (B) was MBIT and the First Component (A) was the other commercial microbicide.

The subject of test [2] is A. niger ATCC # 16404. Described as above. To be noted: for MIC of the microbicide acting alone (Ca or Cb; QA/QB): A. niger, single component.
Excerpt: as §1, §2, §3, §4, §5

In test [3] the test system is Ps. aeruginosa ATCC#9027. As to the kind of experiment: Synergy test: microtiter plate high resolution MIC assay, M9GY medium, 30° C. The note with it: for MIC of the microbicide acting alone (Ca or Cb; QA/QB): Ps. aeruginosa, single component.
Excerpt: as §1, §2, §3, §4, §5

In test [4] the test system is S. aureus ATCC#6538. The description is as above. The note with it: for MIC of the microbicide acting alone (Ca or Cb; QA/QB): S. aureus, single component; for Cb: ppm AI of MBIT alone (MIC end-point, QB): Table 6.
Excerpt: as §1, §2, §3, §4, §5

Setting [5] is: contact time 48 hrs, MBIT alone (QB) or in mixture with ACQ C2 (Qb).
Setting [6] is: contact time 48 hrs, MBIT alone (QB) or in mixture with ACQ type D (Qb).
[7] abbreviates: contact time 24 hrs, MBIT alone (QB) or in mixture with ACQ C2 (Qb).
The mark [8] stands for this setting: contact time 24 hrs, MBIT alone (QB) or in mixture with ACQ type D (Qb).

Several values for one entry are separate records, joined by “and”; a condition that tells them apart may be missing. Identical values can stand only once.

In the case of `CCCCCCCCCCCC(=O)N[C@@H](CCCN=C(N)N)C(=O)OCC.Cl` [CYTO GUARD LA, ethyl lauroyl arginate hydrochloride], the “MIC of the microbicide acting alone (Ca or Cb; QA/QB)” value (from here on “MIC of the microbicide acting alone”) is on record as 87.5 ppm AI in test [1] (contact time 48 hrs); 87.5 ppm AI in test [1] (contact time 72 hrs); 110 ppm AI in test [2] (contact time 3 days); 110 ppm AI in test [2] (contact time 7 days); 42.5 ppm AI in test [3] (contact time 48 hrs); 2.125 ppm AI in test [4] (contact time 24 hrs). Also, the “MIC of the microbicide acting alone” value in test [4] (contact time 48 hrs) is 2.625 ppm AI.
In the case of `Cn1sc2ccccc2c1=O` [MBIT, N-methyl-1,2-benzisothiazolin-3-one], the “Cb: ppm AI of MBIT alone (MIC end-point, QB)” value (shortened to “Cb: ppm AI of MBIT alone”) stood at 30 ppm in test [1] (C. albicans ATCC # 10231, contact time 48 hrs, Table 6); 30 ppm in test [1] (C. albicans ATCC # 10231, contact time 48 hrs, Table 7); 30 ppm in test [1] (C. albicans ATCC # 10231, contact time 48 hrs, Table 8); 30 ppm in test [1] (C. albicans ATCC # 10231, contact time 72 hrs, Table 6); 30 ppm in test [1] (C. albicans ATCC # 10231, contact time 72 hrs, Table 7); 30 ppm in test [1] (C. albicans ATCC # 10231, contact time 72 hrs, Table 8). Further, the “Cb: ppm AI of MBIT alone” value in test [2] (A. niger ATCC # 16404, contact time 3 days, Table 6) turned out to be 37.5 ppm; in test [2] (A. niger ATCC # 16404, contact time 3 days, Table 7), 37.5 ppm; in test [2] (A. niger ATCC # 16404, contact time 3 days, Table 8), 37.5 ppm; in test [2] (A. niger ATCC # 16404, contact time 7 days, Table 6) it was 37.5 ppm; in test [2] (A. niger ATCC # 16404, contact time 7 days, Table 7) it was 75 ppm; in test [2] (A. niger ATCC # 16404, contact time 7 days, Table 8), 75 ppm. In addition, the “Cb: ppm AI of MBIT alone” value in test [3] (Ps. aeruginosa ATCC#9027, contact time 24 hrs, alone, Table 6) is given as 125 ppm; in test [4] (S. aureus ATCC#6538, contact time 24 hrs), 15 ppm; in test [4] (S. aureus ATCC#6538, contact time 48 hrs) it was 15 ppm. The “MIC of the microbicide acting alone” value was 30 ppm AI in test [1] (contact time 48 hrs); 30 ppm AI and 60 ppm AI in test [1] (contact time 72 hrs); 37.5 ppm AI in test [2] (contact time 3 days); 37.5 ppm AI and 75 ppm AI in test [2] (contact time 7 days); 125 ppm AI in test [3] (contact time 24 hrs); 125 ppm AI in test [3] (contact time 48 hrs). The “MIC of the microbicide acting alone” value came out at 15 ppm AI in test [4] (contact time 24 hrs); 15 ppm AI in test [4] (contact time 48 hrs); 15 ppm AI in test [4] (second block of Table 4, contact time not given). In addition, the “Cb: ppm AI of MBIT at MIC end point” value in test [1] (setting [5]) was found to be 60 ppm; in test [1] (setting [6]), 30 ppm; in test [1] (contact time 72 hrs, MBIT alone (QB) or in mixture with ACQ C2 (Qb)) it was 60 ppm; in test [1] (contact time 72 hrs, MBIT alone (QB) or in mixture with ACQ type D (Qb)), 60 ppm; in test [2] (contact time 3 days, MBIT alone (QB) or in mixture with ACQ C2 (Qb)), 37.5 ppm; in test [2] (contact time 3 days, MBIT alone (QB) or in mixture with ACQ type D (Qb)), 37.5 ppm. Besides, the “Cb: ppm AI of MBIT at MIC end point” value is 37.5 ppm in test [2] (contact time 7 days, MBIT alone (QB) or in mixture with ACQ C2 (Qb)); 75 ppm in test [2] (contact time 7 days, MBIT alone (QB) or in mixture with ACQ type D (Qb)); 75 ppm in test [3] (setting [7]); 75 ppm in test [3] (setting [8]); 125 ppm in test [3] (setting [5]); 125 ppm in test [3] (setting [6]). Further, the “Cb: ppm AI of MBIT at MIC end point” value in test [4] (setting [7]), in test [4] (setting [8]), in test [4] (setting [5]) and in test [4] (setting [6]) was 15 ppm in each case.
“cocamidopropyl-N-2-hydroxyethylcarbamoyl methyl dimethyl ammonium chloride [MONTALINE C40]”: the “MIC of the microbicide acting alone” value in test [1] (contact time 48 hrs) came to 525 ppm AI; in test [1] (contact time 72 hrs) it was 1100 ppm AI; in test [2] (contact time 3 days), 650 ppm AI; in test [2] (contact time 7 days), 650 ppm AI; in test [3] (contact time 24 hrs) it was 300 ppm AI; in test [3] (contact time 48 hrs), 300 ppm AI. Moreover, the “MIC of the microbicide acting alone” value in test [4] (contact time 24 hrs) and in test [4] (contact time 48 hrs) was 5 ppm AI in each case.

The values above are taken from patent US8129419B2, “Microbicidal composition” (Rohm and Haas Company, priority 2007, dated 2012).
